{
  "source": "patent US8158153B2",
  "about": "“Nanoparticulate bisphosphonate compositions” (Alkermes Pharma Ireland Limited, priority 2005, dated 2012)",
  "origin": "cited, not measured here",
  "key": {"[1]": {"details": "patients; clinical use"}, "[2]": {"details": "1% solution in distilled water"}},
  "note": "Entries after “also recorded” stand apart in the source; their conditions may differ. Where a name gives a salt, the structure may show the parent alone.",
  "data": [
    {"smiles": "CC(O)(P(=O)([O-])[O-])P(=O)(O)O.[Na+].[Na+]", "note": "[etidronate disodium, disodium salt of (1-hydroxyethylidene) diphosphonic acid]", "values": [
      {"measurement": "solubility in water", "value": "highly soluble"}
    ]},
    {"smiles": "CCCCCN(C)CCC(O)(P(=O)([O-])O)P(=O)(O)O.O.[Na+]", "note": "[Ibandronate sodium, 3-(N-methyl-N-pentyl) amino-1-hydroxypropane-1,1-diphosphonic acid, monosodium salt, monohydrate]", "values": [
      {"measurement": "solubility in organic solvents", "setting": "organic solvents", "value": "practically insoluble"},
      {"measurement": "solubility in water", "value": "freely soluble"},
      {"measurement": "side effects / adverse effects", "setting": "[1]", "value": "gastrointestinal irritation"}
    ]},
    {"smiles": "O=P(O)(O)C(O)(Cc1cccnc1)P(=O)(O)O", "note": "[Risedronate sodium, [1-hydroxy-2-(3-pyridinyl)ethylidene]bis[phosphonic acid] monosodium salt]", "values": [
      {"measurement": "side effects / adverse effects", "setting": "[1]", "value": "gastrointestinal irritation"}
    ]},
    {"smiles": "NCCC(O)(P(=O)([O-])O)P(=O)([O-])O.[Na+].[Na+]", "note": "[Pamidronate disodium, phosphonic acid (3-amino-1-hydroxypropylidene) bis-, disodium salt, pentahydrate]", "values": [
      {"measurement": "pH of a 1% solution", "setting": "[2]", "value": "approximately 8.3"},
      {"measurement": "side effects / adverse effects", "setting": "[1]", "value": "esophageal ulcers; also recorded: pain at the site of catheter insertion; also recorded: gastrointestinal pain"}
    ]}
  ]
}
